Values of other authors as cited in publication PMC2970821 (Clinical Proteomics, 2010).
Ends that are not written are not given here.

Settings: apparently generating ITIH4-25, ref [26]

RPGVLSSRQLGLPGPPDVPDHAAYHPF [ITIH4-27]
Susceptibility to degradation of the synthetic peptide in plasma and serum: highest susceptibility to degradation
